Measured values: publication PMC9133015 (Nature Communications, 2022)
Several values for one entry are separate records, joined by “and”; a condition that tells them apart may be missing. Equal values may be shown once.

Experiments:
Assay in all cases: Kinase inhibitor specificity profiling (Reaction Biology Corporation)
Format in all cases: biochemical
Set-up in all cases: % Enzyme Activity (relative to DMSO controls): concentration or dose not given beside the values
[1] = target: T1, panel of 370 protein kinases (Homo sapiens, UniProt Q9NYL2); settings: 2 h, kinase ZAK/MLTK; read-out: % Enzyme Activity (relative to DMSO controls)
T1 construct: purchased Reaction Biology Corporation (assay service)

[2] = target: T2, panel of 370 protein kinases (Homo sapiens, UniProt Q9Y6E0); settings: kinase MST3/STK24
T2 construct: purchased Reaction Biology Corporation (assay service)

[3] = target: T3, panel of 370 protein kinases (Homo sapiens, UniProt O00444); settings: 2 h, kinase PLK4/SAK; read-out: % Enzyme Activity (relative to DMSO controls)
T3 construct: purchased Reaction Biology Corporation (assay service)

[4] = target: T4, panel of 370 protein kinases (Homo sapiens, UniProt Q9NRH2); settings: 2 h, kinase SNRK; read-out: % Enzyme Activity (relative to DMSO controls)
T4 construct: purchased Reaction Biology Corporation (assay service)

[5] = target: T5, panel of 370 protein kinases (Homo sapiens, UniProt P07332); settings: 2 h, kinase FES/FPS; read-out: % Enzyme Activity (relative to DMSO controls)
T5 construct: purchased Reaction Biology Corporation (assay service)

[6] = target: T6, panel of 370 protein kinases (Homo sapiens, UniProt Q96GD4); settings: 2 h, kinase AURORA B; read-out: % Enzyme Activity (relative to DMSO controls)
T6 construct: purchased Reaction Biology Corporation (assay service)

[7] = target: T7, panel of 370 protein kinases (Homo sapiens, UniProt Q9H4B4); settings: 2 h, kinase PLK3; read-out: % Enzyme Activity (relative to DMSO controls)
T7 construct: purchased Reaction Biology Corporation (assay service)

[8] = target: T8, panel of 370 protein kinases (Homo sapiens, UniProt Q5TCX8); settings: 2 h, kinase MLK4; read-out: % Enzyme Activity (relative to DMSO controls)
T8 construct: purchased Reaction Biology Corporation (assay service)

[9] = target: T9, panel of 370 protein kinases (Homo sapiens, UniProt Q9UEE5); settings: 2 h, kinase DRAK1/STK17A; read-out: % Enzyme Activity (relative to DMSO controls)
T9 construct: purchased Reaction Biology Corporation (assay service)

[10] = target: T10, panel of 370 protein kinases (Homo sapiens, UniProt Q8TDX7); settings: 2 h, kinase NEK7; read-out: % Enzyme Activity (relative to DMSO controls)
T10 construct: purchased Reaction Biology Corporation (assay service)

[11] = target: T11, panel of 370 protein kinases (Homo sapiens, UniProt P04626); settings: 2 h, kinase ERBB2/HER2; read-out: % Enzyme Activity (relative to DMSO controls)
T11 construct: purchased Reaction Biology Corporation (assay service)

[12] = target: T12, panel of 370 protein kinases (Homo sapiens, UniProt Q9H093); settings: kinase SNARK/NUAK2
T12 construct: purchased Reaction Biology Corporation (assay service)

[13] = target: T13, panel of 370 protein kinases (Homo sapiens, UniProt P07949); settings: 2 h, kinase RET; read-out: % Enzyme Activity (relative to DMSO controls)
T13 construct: purchased Reaction Biology Corporation (assay service)

[14] = target: T14, panel of 370 protein kinases (Homo sapiens, UniProt Q16539); settings: kinase P38a/MAPK14
T14 construct: purchased Reaction Biology Corporation (assay service)

[15] = target: T15, panel of 370 protein kinases (Homo sapiens, UniProt P21802); settings: 2 h, kinase FGFR2; read-out: % Enzyme Activity (relative to DMSO controls)
T15 construct: purchased Reaction Biology Corporation (assay service)

[16] = target: T16, panel of 370 protein kinases (Homo sapiens, UniProt Q6P5Z2); settings: kinase PKN3/PRK3
T16 construct: purchased Reaction Biology Corporation (assay service)

[17] = target: T17, panel of 370 protein kinases (Homo sapiens, UniProt Q96PN8); settings: 2 h, kinase TSSK3/STK22C; read-out: % Enzyme Activity (relative to DMSO controls)
T17 construct: purchased Reaction Biology Corporation (assay service)

[18] = target: T18, panel of 370 protein kinases (Homo sapiens, UniProt Q8IWQ3); settings: 2 h, kinase BRSK2; read-out: % Enzyme Activity (relative to DMSO controls)
T18 construct: purchased Reaction Biology Corporation (assay service)

[19] = target: T19, panel of 370 protein kinases (Homo sapiens, UniProt O95819); settings: 2 h, kinase HGK/MAP4K4; read-out: % Enzyme Activity (relative to DMSO controls)
T19 construct: purchased Reaction Biology Corporation (assay service)

[20] = target: T20, panel of 370 protein kinases (Homo sapiens, UniProt P53667); settings: 2 h, kinase LIMK1; read-out: % Enzyme Activity (relative to DMSO controls)
T20 construct: purchased Reaction Biology Corporation (assay service)

[21] = target: T21, panel of 370 protein kinases (Homo sapiens, UniProt Q9UPE1); settings: 2 h, kinase MSSK1/STK23; read-out: % Enzyme Activity (relative to DMSO controls)
T21 construct: purchased Reaction Biology Corporation (assay service)
T21 sequence (Q9UPE1 whole entry): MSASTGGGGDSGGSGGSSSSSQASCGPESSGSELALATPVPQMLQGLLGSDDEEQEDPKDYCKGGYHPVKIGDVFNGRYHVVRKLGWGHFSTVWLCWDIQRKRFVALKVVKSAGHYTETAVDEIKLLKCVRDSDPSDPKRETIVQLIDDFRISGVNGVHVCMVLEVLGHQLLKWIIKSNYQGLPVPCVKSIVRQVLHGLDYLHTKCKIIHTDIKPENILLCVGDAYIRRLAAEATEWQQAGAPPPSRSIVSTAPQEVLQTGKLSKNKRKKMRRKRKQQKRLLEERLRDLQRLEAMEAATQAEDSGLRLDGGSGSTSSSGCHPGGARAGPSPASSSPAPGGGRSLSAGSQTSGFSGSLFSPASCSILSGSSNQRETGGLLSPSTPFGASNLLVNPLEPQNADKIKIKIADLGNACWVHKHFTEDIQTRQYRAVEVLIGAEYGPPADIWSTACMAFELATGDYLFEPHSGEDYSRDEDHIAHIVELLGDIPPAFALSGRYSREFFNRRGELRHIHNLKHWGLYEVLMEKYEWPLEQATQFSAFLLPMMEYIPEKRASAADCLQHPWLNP

T14 sequence (Q16539 whole entry): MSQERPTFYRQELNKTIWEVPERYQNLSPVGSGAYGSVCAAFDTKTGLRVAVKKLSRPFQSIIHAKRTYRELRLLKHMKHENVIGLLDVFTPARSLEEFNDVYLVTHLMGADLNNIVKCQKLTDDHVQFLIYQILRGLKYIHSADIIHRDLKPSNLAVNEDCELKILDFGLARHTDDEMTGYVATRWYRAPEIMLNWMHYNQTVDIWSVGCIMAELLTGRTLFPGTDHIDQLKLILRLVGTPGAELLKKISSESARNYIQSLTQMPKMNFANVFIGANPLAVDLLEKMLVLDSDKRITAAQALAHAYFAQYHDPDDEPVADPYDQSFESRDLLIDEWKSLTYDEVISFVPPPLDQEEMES
T12 sequence (Q9H093 whole entry): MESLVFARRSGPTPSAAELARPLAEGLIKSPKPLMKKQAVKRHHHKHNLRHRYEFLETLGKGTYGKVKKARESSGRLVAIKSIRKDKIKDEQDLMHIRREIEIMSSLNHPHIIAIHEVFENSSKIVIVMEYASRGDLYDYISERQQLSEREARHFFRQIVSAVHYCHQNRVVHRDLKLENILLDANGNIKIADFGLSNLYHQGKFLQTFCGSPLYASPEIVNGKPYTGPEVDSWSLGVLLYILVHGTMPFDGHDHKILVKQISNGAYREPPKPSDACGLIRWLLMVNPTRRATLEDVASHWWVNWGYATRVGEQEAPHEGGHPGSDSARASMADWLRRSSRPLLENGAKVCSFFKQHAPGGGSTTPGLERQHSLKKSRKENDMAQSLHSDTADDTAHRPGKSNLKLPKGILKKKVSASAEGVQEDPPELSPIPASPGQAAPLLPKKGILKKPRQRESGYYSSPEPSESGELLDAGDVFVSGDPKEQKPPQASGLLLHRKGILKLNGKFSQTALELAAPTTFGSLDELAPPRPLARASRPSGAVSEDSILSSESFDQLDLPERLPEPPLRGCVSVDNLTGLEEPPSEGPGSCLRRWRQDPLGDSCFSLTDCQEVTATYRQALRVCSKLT
T2 sequence (Q9Y6E0 whole entry): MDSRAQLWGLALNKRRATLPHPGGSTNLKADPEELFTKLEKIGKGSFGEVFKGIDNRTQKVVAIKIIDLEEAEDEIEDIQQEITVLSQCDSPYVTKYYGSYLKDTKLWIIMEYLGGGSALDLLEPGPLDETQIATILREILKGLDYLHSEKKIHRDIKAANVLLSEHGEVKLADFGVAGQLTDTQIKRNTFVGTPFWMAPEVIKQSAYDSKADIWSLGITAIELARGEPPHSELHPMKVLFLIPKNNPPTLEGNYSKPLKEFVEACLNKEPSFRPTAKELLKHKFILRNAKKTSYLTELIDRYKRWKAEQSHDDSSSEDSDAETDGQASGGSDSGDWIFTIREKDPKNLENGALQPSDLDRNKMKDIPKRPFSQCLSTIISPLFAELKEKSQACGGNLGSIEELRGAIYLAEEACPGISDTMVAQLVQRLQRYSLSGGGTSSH
T16 sequence (Q6P5Z2 whole entry): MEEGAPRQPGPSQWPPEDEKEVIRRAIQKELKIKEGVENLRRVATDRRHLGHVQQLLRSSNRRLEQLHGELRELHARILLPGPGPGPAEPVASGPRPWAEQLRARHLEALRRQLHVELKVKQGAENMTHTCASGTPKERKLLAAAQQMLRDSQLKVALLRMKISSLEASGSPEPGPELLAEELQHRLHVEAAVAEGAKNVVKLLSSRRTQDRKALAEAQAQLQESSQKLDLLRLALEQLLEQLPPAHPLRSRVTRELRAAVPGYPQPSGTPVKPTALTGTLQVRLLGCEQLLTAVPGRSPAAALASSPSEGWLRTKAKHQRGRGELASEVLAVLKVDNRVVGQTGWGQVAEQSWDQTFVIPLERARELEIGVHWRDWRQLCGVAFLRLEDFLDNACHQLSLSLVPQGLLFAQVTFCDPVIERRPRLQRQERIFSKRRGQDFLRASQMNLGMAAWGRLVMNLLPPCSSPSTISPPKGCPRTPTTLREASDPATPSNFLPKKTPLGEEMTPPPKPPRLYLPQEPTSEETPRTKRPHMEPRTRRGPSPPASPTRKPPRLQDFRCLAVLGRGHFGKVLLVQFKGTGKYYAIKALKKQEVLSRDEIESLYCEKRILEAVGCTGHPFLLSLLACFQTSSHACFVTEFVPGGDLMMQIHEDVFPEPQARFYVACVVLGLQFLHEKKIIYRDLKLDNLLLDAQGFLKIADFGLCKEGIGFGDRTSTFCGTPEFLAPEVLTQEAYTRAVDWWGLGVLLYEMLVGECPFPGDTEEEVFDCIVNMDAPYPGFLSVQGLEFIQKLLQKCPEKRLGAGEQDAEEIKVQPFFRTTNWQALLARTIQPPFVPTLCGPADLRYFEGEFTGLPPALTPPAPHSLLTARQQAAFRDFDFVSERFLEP
T9 sequence (Q9UEE5 whole entry): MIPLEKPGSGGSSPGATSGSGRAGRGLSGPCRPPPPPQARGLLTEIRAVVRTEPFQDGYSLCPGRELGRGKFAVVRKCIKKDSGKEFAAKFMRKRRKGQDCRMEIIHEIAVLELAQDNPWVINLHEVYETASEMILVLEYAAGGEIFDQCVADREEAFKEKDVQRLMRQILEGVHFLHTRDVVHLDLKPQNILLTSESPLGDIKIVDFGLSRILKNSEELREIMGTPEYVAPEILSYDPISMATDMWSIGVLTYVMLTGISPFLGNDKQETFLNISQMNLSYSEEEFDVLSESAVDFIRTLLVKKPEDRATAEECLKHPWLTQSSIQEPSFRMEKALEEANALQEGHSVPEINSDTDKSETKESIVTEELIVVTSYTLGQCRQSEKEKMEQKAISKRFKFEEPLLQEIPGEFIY
T18 sequence (Q8IWQ3 whole entry): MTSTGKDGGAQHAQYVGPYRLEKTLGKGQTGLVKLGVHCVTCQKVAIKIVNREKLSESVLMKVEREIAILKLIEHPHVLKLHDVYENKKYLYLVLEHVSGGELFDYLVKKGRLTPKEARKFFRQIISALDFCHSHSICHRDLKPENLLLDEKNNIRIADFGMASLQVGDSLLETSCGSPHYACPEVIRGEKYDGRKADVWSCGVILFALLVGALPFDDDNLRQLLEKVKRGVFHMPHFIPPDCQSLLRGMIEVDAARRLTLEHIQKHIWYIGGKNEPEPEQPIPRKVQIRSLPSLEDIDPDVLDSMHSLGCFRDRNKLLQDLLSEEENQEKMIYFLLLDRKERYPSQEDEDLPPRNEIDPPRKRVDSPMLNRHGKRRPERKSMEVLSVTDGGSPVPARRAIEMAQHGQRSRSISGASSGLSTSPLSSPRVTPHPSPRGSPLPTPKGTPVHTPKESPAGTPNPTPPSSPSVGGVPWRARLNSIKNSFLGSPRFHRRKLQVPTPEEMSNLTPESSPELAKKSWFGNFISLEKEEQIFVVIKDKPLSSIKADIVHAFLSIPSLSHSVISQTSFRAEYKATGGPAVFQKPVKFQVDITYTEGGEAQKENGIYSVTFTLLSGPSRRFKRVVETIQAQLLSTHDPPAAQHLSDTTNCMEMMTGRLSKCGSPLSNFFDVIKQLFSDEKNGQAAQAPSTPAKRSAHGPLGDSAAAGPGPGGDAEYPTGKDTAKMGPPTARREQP
T20 sequence (P53667 whole entry): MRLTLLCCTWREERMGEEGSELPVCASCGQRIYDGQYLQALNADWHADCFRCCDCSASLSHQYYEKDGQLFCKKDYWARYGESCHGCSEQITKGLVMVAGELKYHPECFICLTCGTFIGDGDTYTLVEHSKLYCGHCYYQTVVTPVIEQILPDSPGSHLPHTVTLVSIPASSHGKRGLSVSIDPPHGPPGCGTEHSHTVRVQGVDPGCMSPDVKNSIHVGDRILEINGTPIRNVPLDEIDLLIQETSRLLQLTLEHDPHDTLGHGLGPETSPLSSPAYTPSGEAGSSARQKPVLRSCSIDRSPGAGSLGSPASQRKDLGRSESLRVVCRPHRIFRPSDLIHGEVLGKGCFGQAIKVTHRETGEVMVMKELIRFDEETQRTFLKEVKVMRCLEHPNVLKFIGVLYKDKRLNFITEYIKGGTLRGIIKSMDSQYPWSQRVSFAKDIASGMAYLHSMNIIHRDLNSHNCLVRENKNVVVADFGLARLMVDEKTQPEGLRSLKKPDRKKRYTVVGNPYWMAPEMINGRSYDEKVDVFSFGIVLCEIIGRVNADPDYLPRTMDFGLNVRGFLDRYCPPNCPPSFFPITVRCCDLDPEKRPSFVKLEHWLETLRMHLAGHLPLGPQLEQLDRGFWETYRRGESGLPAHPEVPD
T10 sequence (Q8TDX7 whole entry): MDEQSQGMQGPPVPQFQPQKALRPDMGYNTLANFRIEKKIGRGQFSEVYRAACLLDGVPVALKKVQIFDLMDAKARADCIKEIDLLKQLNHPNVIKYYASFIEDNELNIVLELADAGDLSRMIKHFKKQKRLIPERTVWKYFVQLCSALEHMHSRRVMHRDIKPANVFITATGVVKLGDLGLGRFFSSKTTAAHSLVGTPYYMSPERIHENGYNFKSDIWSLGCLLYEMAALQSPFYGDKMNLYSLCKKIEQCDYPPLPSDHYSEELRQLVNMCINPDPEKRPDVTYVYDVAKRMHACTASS

SMILES: CCN1CCN(C(=O)c2ccc(Nc3ncc(F)c(-c4ccc5nc(N(C)C)sc5c4)n3)nc2)CC1 [YK-2-69]
- remaining activity at 1 µM [1]: 107%
- % Enzyme Activity (relative to DMSO controls) [2]: 107.35% and 104.50%
- remaining activity at 1 µM [3]: 72.6%
- remaining activity at 1 µM [4]: 95.4%
- remaining activity at 1 µM [5]: 85.3%
- remaining activity at 1 µM [6]: 94.5%
- remaining activity at 1 µM [7]: 99.7%
- remaining activity at 1 µM [8]: 104%
- remaining activity at 1 µM [9]: 59%
- remaining activity at 1 µM [10]: 96.7%
- remaining activity at 1 µM [11]: 100%
- % Enzyme Activity (relative to DMSO controls) [12]: 95.57% and 95.00%
- remaining activity at 1 µM [13]: 88.1%
- % Enzyme Activity (relative to DMSO controls) [14]: 99.00% and 95.59%
- remaining activity at 1 µM [15]: 86.2%
- % Enzyme Activity (relative to DMSO controls) [16]: 103.56% and 103.10%
- remaining activity at 1 µM [17]: 94.6%
- remaining activity at 1 µM [18]: 96.3%
- remaining activity at 1 µM [19]: 86.8%
- remaining activity at 1 µM [20]: 95.7%
- remaining activity at 1 µM [21]: 96.3%
